Series [1] can be described thus: Pharmacokinetics and oral bioavailability of D11.3 in male Swiss albino mice (IV, PO, SQ). Conditions: for MRT last: read-out: MRT0-last. Format: in vivo. Here is the method: In vivo bioavailability assays were conducted in mice and rats. D8.3.p1 and D10.1 were studied in female Balb/C mice by van Voorhis group at University of Washington. D11.2 was evaluated in Sprague Dawley (SD) rats by Robert Griffin’s group at Takeda Pharmaceuticals. D11.3 was studied in the male swiss albino mice by the contract research organization, GVK Biosciences Pvt. Ltd., Hyderabad, India. All animals used in these studies were handled in strict accordance with practices made to minimize suffering. All animal experiments conducted at the University of Washington, USA, and Takeda Pharmaceuticals, USA were approved by the Institutional Animal Care and Use Committee. Animal studies at GVK Biosciences were reviewed and approved by the Institutional Animal Ethics Committee of GVK Biosciences.
We selected four designed macrocycles with diverse structures and in vitro rates of permeability for in vivo oral bioavailability studies in the rodent models. Due to the intensive resource requirements for such studies, these studies were conducted by three different research groups. D8.3.p1 and D10.1 were studied in female Balb/C mice by van Voorhis group at University of Washington. D11.2 was evaluated in Sprague Dawley (SD) rats by Robert Griffin’s group at Takeda Pharmaceuticals. D11.3 was studied in the male swiss albino mice by the contract research organization, GVK Biosciences Pvt. Ltd., Hyderabad, India.
Pharmacokinetic properties of D11.3 were evaluated by the contract research organization, GVK Bio in Swiss Albino male mice after dosing the peptides through oral gavage (PO), subcutaneous (SQ), and intravenous (IV) routes. Plasma samples were collected at multiple time points up to 24 hours. Animals were dosed with 27 gauge needle through tail vein for IV, gastric gavage needle for PO, and 27 gauge needle on dorsal side for SQ. Plasma concentrations were determined using LC-MS/MS based quantification. Pharmacokinetic parameters were determined using non-compartmental analysis with Phoenix software version 8.1.
Dosing vehicle: DMSO (10%) + 10% solutol in PBS (90%) (IV, PO, SQ)
Dose volume: […] (PO, SQ); […] (IV)
Dose: 10 mg/kg (PO) 1 mg/kg (IV), 5mg/kg (SQ)

Series [2] can be described thus: Parallel artificial membrane permeability assay (PAMPA). The following applies: average of replicates R1-R3; BQL = no significant peak detected for the peptide in the acceptor wells. A general note: In PAMPA a lipid-coated filter parts donor from acceptor wells.
Where [3] appears, read: male, Swiss albino, mouse, plasma, IV 1.00 mg/kg.
Setting [4] is: male, Swiss albino, mouse, plasma, PO 10.00 mg/kg.
Where [5] appears, read: male, Swiss albino, mouse, plasma, SC 5.00 mg/kg.

Structures are written as SMILES. Several values for one entry are separate records, joined by “and”; a condition that tells them apart may be missing. Identical values can stand only once. Like-named read-outs stand apart in the source and are kept apart here. Where a SMILES comes first, the peptide text is derived from it. [ ]: non-standard residue; d: D form. dNMeI = CC[C@@H](C)[C@@H](NC)C(=O)O; NMeL = CN[C@@H](CC(C)C)C(=O)O; dNMeL = CN[C@H](CC(C)C)C(=O)O

Usually AUC(0-inf) stands for total exposure, with the tail of the curve extrapolated. Higher therefore signals more exposure. A word on the AUC(0-t): it is the area under the concentration-time curve up to a stated or last time point. Low values mean low exposure, high ones high exposure. As a reminder, the Cmax is the maximum level reached in the sampled fluid or tissue. In general, Tmax refers to the time at which the peak concentration occurs. A word on the bioavailability: it is the share of a dose that reaches the circulation, judged against a reference dose that is usually intravenous. By half-life is commonly meant the time needed for the level to fall by half in the phase considered. `CC[C@@H](C)[C@H]1NC(=O)[C@H]([C@@H](C)CC)NC(=O)[C@H](CC(C)C)N(C)C(=O)[C@H]2CCCN2C(=O)[C@@H]([C@H](C)CC)NC(=O)[C@@H]([C@H](C)CC)N(C)C(=O)[C@H](CC(C)C)NC(=O)[C@H]2CCCN2C(=O)[C@@H]2CCCN2C(=O)[C@H](C(C)C)NC(=O)[C@H]2CCCN2C1=O` [Design D11.3, VAL PRO DPRO LEU *DILE DILE DPRO *LEU ILE DILE DPRO] (cyclo(I[dI][dP]VP[dP]L[dNMeI][dI][dP][NMeL])): the AUCExtra is 3.09% in series [1] (IV 1.00 mg/kg), 1.91% in series [1] (PO 10.00 mg/kg) and 30.33% in series [1] (SC 5.00 mg/kg). Moreover, the Plasma concentration in series [1] (IV 1.00 mg/kg, 0.25 h, individual mice M1, M2, M3, 1 mg/kg) is 3305.02 ng/mL and 3779.15 ng/mL and 2973.54 ng/mL; in series [1] (IV 1.00 mg/kg, 1 h, individual mice M1, M2, M3, 1 mg/kg), 931.71 ng/mL and 1218.22 ng/mL and 1283.47 ng/mL; in series [1] (IV 1.00 mg/kg, 3 h, individual mice M1, M2, M3, 1 mg/kg), 887.86 ng/mL and 328.77 ng/mL and 318.62 ng/mL; in series [1] (IV 1.00 mg/kg, 5 h, individual mice M1, M2, M3, 1 mg/kg), 240.02 ng/mL and 271.55 ng/mL and 289.17 ng/mL; in series [1] (IV 1.00 mg/kg, 8 h, individual mice M1, M2, M3, 1 mg/kg), 399.46 ng/mL and 124.26 ng/mL and 182.53 ng/mL; in series [1] (IV 1.00 mg/kg, 24 h, individual mice M1, M2, M3, 1 mg/kg), 17.65 ng/mL and 30.97 ng/mL and 34.16 ng/mL. Moreover, the Plasma concentration was 47.49 ng/mL and 76.49 ng/mL and 84.94 ng/mL in series [1] (PO 10.00 mg/kg, 0.08 h, individual mice M1, M2, M3, 10 mg/kg); 454 ng/mL and 804.64 ng/mL and 992.29 ng/mL in series [1] (PO 10.00 mg/kg, 0.25 h, individual mice M1, M2, M3, 10 mg/kg); 2858.02 ng/mL and 2832.99 ng/mL and 1880.71 ng/mL in series [1] (PO 10.00 mg/kg, 0.5 h, individual mice M1, M2, M3, 10 mg/kg); 2950.38 ng/mL and 3417.67 ng/mL and 2525.44 ng/mL in series [1] (PO 10.00 mg/kg, 1 h, individual mice M1, M2, M3, 10 mg/kg); 3249.94 ng/mL and 3660.57 ng/mL and 3578.88 ng/mL in series [1] (PO 10.00 mg/kg, 3 h, individual mice M1, M2, M3, 10 mg/kg); 3313.72 ng/mL and 2427.94 ng/mL and 1866.9 ng/mL in series [1] (PO 10.00 mg/kg, 5 h, individual mice M1, M2, M3, 10 mg/kg). For the same compound, the Plasma concentration is 1232.5 ng/mL and 1764.28 ng/mL and 1439.78 ng/mL in series [1] (PO 10.00 mg/kg, 8 h, individual mice M1, M2, M3, 10 mg/kg); 177.35 ng/mL and 48.47 ng/mL and 59.29 ng/mL in series [1] (PO 10.00 mg/kg, 24 h, individual mice M1, M2, M3, 10 mg/kg); 10.15 ng/mL in series [1] (SC 5.00 mg/kg, 0.08 h, Mean); 35.04 ng/mL in series [1] (SC 5.00 mg/kg, 0.25 h, Mean); 38.67 ng/mL in series [1] (SC 5.00 mg/kg, 0.5 h, Mean); 23.29 ng/mL and 70.26 ng/mL and 22.46 ng/mL in series [1] (SC 5.00 mg/kg, 0.5 h, individual mice M1, M2, M3, 5 mg/kg). Further, the Plasma concentration in series [1] (SC 5.00 mg/kg, 1 h, individual mice M1, M2, M3, 5 mg/kg) was 52.72 ng/mL and 45.05 ng/mL and 34.59 ng/mL; in series [1] (SC 5.00 mg/kg, 3 h, individual mice M1, M2, M3, 5 mg/kg), 141.22 ng/mL and 103.85 ng/mL and 139.25 ng/mL; in series [1] (SC 5.00 mg/kg, 24 h, Mean), 50.51 ng/mL. The “health of animals during the study” value in series [1] (IV 1 mg/kg, PO 10 mg/kg, SQ 5 mg/kg) is “healthy throughout the duration of the study”. The level at 0.08 h in series [1] (male, Swiss Albino, mouse, plasma, iv, 1 mg/kg, IV 1.00 mg/kg, 0.08 h, individual mice M1, M2, M3, read-out: Plasma concentration) turned out to be 3320 ng/mL. Moreover, the level at 0.5 h in series [1] (male, Swiss Albino, mouse, plasma, iv, 1 mg/kg, IV 1.00 mg/kg, 0.5 h, individual mice M1, M2, M3, read-out: Plasma concentration) came to 2570 ng/mL. The level at 5 h in series [1] (male, Swiss albino, mouse, plasma, sc, 5 mg/kg, SC 5.00 mg/kg, 5 h, individual mice M1, M2, M3, read-out: Plasma concentration) worked out at 117 ng/mL. Moreover, in series [1] (male, Swiss albino, mouse, plasma, sc, 5 mg/kg, SC 5.00 mg/kg, 8 h, individual mice M1, M2, M3, read-out: Plasma concentration), the level at 8 h was 153 ng/mL. The figures for the AUC(0-inf) in series [1] (setting [3]), in series [1] (setting [4]) and in series [1] (setting [5]) were 7190 ng·h/mL, 28800 ng·h/mL and 3050 ng·h/mL, respectively. Also, the AUC(0-t) was 6970 ng·h/mL in series [1] (setting [3]), 28200 ng·h/mL in series [1] (setting [4]) and 2120 ng·h/mL in series [1] (setting [5]). Further, the C0 in series [1] (setting [3]) worked out at 3960 ng/mL. In series [1] (setting [3]), this compound showed a Vd of 1.12 L/kg. The compound also registered a clearance in series [1] (setting [3]) of 2.32 mL/min/kg. Also, the Cmax in series [1] (setting [4]) came out at 3500 ng/mL; in series [1] (setting [5]), 148 ng/mL. The time to peak (Tmax) in series [1] (setting [4]) turned out to be 3 h; in series [1] (setting [5]), 5 h. Moreover, the bioavailability in series [1] (male, Swiss albino, mouse, plasma, PO 10.00 mg/kg vs IV 1.00 mg/kg, read-out: F (oral bioavailability)) is 40% and 40.1%. Besides, the half-life in series [1] (mouse, in vivo, IV 1.00 mg/kg) was 5.58 h. Also, the MRT last in series [1] (mouse, in vivo, IV 1.00 mg/kg) came out at 4.64 h; in series [1] (mouse, in vivo, PO 10.00 mg/kg), 6.32 h; in series [1] (mouse, in vivo, SC 5.00 mg/kg), 10.7 h.

As to `CC[C@@H](C)[C@H]1NC(=O)[C@@H](CC(C)C)NC(=O)[C@@H](CC(C)C)N(C)C(=O)[C@@H]2CCCN2C(=O)[C@@H](C(C)C)NC(=O)[C@H](CC(C)C)NC(=O)[C@@H](CC(C)C)N(C)C(=O)[C@@H]2CCCN2C1=O` [Design D8.3.p1, DLEU DVAL PRO *DLEU DLEU DILE PRO *DLEU] (cyclo(L[dV]P[dNMeL][dL][dI]P[dNMeL])), in series [2], the PAMPA_Papp_Avg is 4.61E-06.

The values are drawn from paper PMC9490236, “Accurate de novo design of membrane-traversing macrocycles” (Cell, 2022).
